Reference: publication PMC5091859, “Protein Translation Enzyme lysyl-tRNA Synthetase Presents a New Target for Drug Development against Causative Agents of Loiasis and Schistosomiasis” (PLoS Neglected Tropical Diseases, 2016)
Where “and” joins values, the source holds several entries; their conditions need not be identical. Equal entries are not always repeated.

What was measured:
malaria blood stage = tested on: malaria blood stage; design: method as in PMID 22704625; settings: cited from earlier work
[1] = design: method as in PMID 22704625; settings: main limitation as a lead molecule; cited from earlier work
[2] = biological target: human counterpart KRS (HsKRS); settings: read-out: Affinity for human counterpart KRS; cited from earlier work
LlKRS [3] = biological target: T1, LlKRS (Loa loa, UniProt A0A1I7VQ84); experiment: Isothermal titration calorimetry, LlKRS; format: binding; settings: 30°C
Method: (§1) ITC experiments were conducted at 30°C in the MicroCal ITC-200 apparatus (GE Healthcare) and results were fitted into graph using Microcal origin software. […] For LlKRS, titrations consisted of 0.4 μl of first injection followed by 39 injections of 1 μl with 150 s intervals between injections. For SmKRS, same titrations were performed with 120 s intervals.

malaria liver stage = tested on: malaria liver stage; design: method as in PMID 22704625; settings: cited from earlier work
SmKRS [4] = biological target: T2, SmKRS (Schistosoma mansoni, UniProt A0A3Q0KK01); experiment: Isothermal titration calorimetry, SmKRS; format: binding; settings: 30°C
Method: as §1

[5] = biological target: SmKRS (S. mansoni lysyl-tRNA synthetase), wild type (Schistosoma mansoni, UniProt A0A3Q0KK01); experiment: Aminoacylation enzyme inhibition assay, SmKRS; format: biochemical; settings: 500 nM enzyme, 100 μM ATP, 500 μM L-lysine, 18 μM SmtRNALys, 37°C
Method: Aminoacylation and enzyme inhibition assays for both KRSs were performed as described elsewhere [17, 48]. SmtRNA^Lys was refolded prior to enzyme assays by heating at 70°C for 10 minutes followed by addition of 10 mM MgCl2 and slow cooling to room temperature. Aminoacylation buffer for both worm KRSs contained 30 mM HEPES (pH 7.5), 150 mM NaCl, 30 mM KCl, 50 mM MgCl2, 1mM DTT, 100 μM ATP, 500 μM L-lysine, 18 μM SmtRNA^Lys, 2 U/ml E. coli inorganic pyrophosphatase (NEB) and 500 nM recombinant SmKRS or LlKRS protein at 37°C. Reaction at different time points was stopped by addition of 40 mM EDTA followed by transfer to ice. Recombinant maltose binding protein (MBP) was used as a control.

[6] = biological target: Loa loa lysyl-tRNA synthetase (Loa loa); experiment: SEC; gel permeation chromatography of the purified protein on a column calibrated with high molecular weight standards, protein buffer as mobile phase, 0.5 ml/min; elution at dimer size, no absorbance at tetrameric size
[7] = biological target: Schistosoma mansoni lysyl-tRNA synthetase (Schistosoma mansoni); experiment: as above
SmKRS [8] = biological target: T2, SmKRS; experiment: Protein thermal shift assay, SmKRS; format: binding; settings: ligand 20 μM, KRS 2 μM (10:1), 1 mM L-lysine
Method: (§2) Protein melt curve assays for both worm KRSs were performed as reported earlier. Both KRSs were diluted in buffer containing 20 mM Tris (pH 8.0), 200 mM NaCl, 5 mM MgCl2, 1 mM L-lysine and 2 X SYPRO orange dye (Life Technologies). […] Ligand bound and unbound samples of both KRSs were heated from 20 to 96°C at a rate of 1°C min^-1 and fluorescence signals were monitored by StepOnePlus quantitative real-time PCR system (Life Technologies). […] Each curve was an average of three measurements and data were analyzed using thermal shift software (Life technologies). Samples without the addition of ligands were used to determine thermal melting profile of apo proteins. […] Derivative Tm (melting temperature) was used for analysis.

[9] = biological target: Human-like LlKRS V329Q/S346T mutant (Loa loa, UniProt A0A1I7VQ84); format: binding; settings: ligand 20 μM, KRS 2 μM (ten fold), 1 mM L-lysine
LlKRS [10] = biological target: T1, LlKRS; experiment: Protein thermal shift assay, LlKRS; format: binding; settings: ligand 20 μM, KRS 2 μM (10:1), 1 mM L-lysine
Method: as §2

C[C@H]1CCC[C@H](C[C@H]2Cc3cc(O)cc(O)c3C(=O)O2)O1 [cladosporin]
IC50 (malaria blood stage): < 100 nM | Bioavailability [1]: Poor | Kd [2]: 3300 nM | n Value (one site model), LlKRS (LlKRS [3]): 0.821 ± 0.01 | ΔH (ITC), LlKRS (LlKRS [3]): -17.28 ± 0.3965 kcal/mol | ΔS (ITC), LlKRS (LlKRS [3]): -24.9 cal/mol/deg | IC50 (malaria liver stage): < 100 nM | n Value (one site model), SmKRS (SmKRS [4]): 0.979 ±0.00 | ΔH (ITC), SmKRS (SmKRS [4]): -16.59 ± 0.2013 kcal/mol | ΔS (ITC), SmKRS (SmKRS [4]): -21.7 cal/mol/deg | Kd (SmKRS [4]; PBS pH 7.4, 1 mM L-Lys, 2 mM MgCl2, read-out: Kd (ITC), SmKRS): 62.8 ± 7.8 nM | IC50 [5]: 97 nM and ~97 nM

Loa loa lysyl-tRNA synthetase (enzyme)
stoichiometry N [6]: 2

Schistosoma mansoni lysyl-tRNA synthetase (enzyme)
stoichiometry N [7]: 2

adenosine 5’-(β, γ-imido) triphosphate [AMPPNP]
Thermal shift of SmKRS (SmKRS [8]): ~ 0.4 °C | Thermal shift of human-like LlKRS [9]: ~ 0.4 °C | Thermal shift of LlKRS (LlKRS [10]): ~ 0.3 °C
